The source made the active and inactive calls.
Tests used:
[1] = target: FAD-linked sulfhydryl oxidase ALR (Homo sapiens, UniProt P55789); test: ALR-catalysed DTT oxidation blockers – biochemical, H2O2 detection, luminescence, cherry-pick, dose response (AID 493248)
[2] = target: T1, Carboxy-terminal domain RNA polymerase II polypeptide A small phosphatase 1 (Homo sapiens, UniProt Q9GZU7); test: CTDSP1 inhibitors, concentration-response, biochemical, absorbance readout, ultra-high-throughput screen actives (AID 540297); assay type: functional
T1 sequence (Q9GZU7 whole entry): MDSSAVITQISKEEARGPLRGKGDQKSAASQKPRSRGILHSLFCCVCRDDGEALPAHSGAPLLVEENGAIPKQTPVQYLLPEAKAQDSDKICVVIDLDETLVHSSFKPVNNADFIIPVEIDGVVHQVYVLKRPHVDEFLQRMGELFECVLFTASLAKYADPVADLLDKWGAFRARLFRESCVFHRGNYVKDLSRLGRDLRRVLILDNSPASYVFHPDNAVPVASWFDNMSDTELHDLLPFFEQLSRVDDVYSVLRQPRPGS

Caspase-6 = target: T2, Caspase-6 (Homo sapiens, UniProt P55212); test: inhibition of CASP6 peptide cleavage – biochemical, VEID-R110 fluorescence, cherry-pick, dose response (AID 720632)
T2 sequence (P55212 whole entry): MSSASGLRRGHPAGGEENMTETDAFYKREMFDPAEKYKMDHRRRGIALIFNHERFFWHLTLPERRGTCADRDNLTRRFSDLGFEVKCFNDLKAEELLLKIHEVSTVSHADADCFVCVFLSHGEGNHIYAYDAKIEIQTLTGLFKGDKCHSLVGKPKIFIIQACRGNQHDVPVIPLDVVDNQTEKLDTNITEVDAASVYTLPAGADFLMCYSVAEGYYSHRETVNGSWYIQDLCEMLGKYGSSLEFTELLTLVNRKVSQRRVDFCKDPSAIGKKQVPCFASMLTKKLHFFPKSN

[3] = target: T3, Histone-lysine N-methyltransferase NSD2 (Homo sapiens, UniProt O96028); assay type: biochemical
T3 sequence (O96028 whole entry): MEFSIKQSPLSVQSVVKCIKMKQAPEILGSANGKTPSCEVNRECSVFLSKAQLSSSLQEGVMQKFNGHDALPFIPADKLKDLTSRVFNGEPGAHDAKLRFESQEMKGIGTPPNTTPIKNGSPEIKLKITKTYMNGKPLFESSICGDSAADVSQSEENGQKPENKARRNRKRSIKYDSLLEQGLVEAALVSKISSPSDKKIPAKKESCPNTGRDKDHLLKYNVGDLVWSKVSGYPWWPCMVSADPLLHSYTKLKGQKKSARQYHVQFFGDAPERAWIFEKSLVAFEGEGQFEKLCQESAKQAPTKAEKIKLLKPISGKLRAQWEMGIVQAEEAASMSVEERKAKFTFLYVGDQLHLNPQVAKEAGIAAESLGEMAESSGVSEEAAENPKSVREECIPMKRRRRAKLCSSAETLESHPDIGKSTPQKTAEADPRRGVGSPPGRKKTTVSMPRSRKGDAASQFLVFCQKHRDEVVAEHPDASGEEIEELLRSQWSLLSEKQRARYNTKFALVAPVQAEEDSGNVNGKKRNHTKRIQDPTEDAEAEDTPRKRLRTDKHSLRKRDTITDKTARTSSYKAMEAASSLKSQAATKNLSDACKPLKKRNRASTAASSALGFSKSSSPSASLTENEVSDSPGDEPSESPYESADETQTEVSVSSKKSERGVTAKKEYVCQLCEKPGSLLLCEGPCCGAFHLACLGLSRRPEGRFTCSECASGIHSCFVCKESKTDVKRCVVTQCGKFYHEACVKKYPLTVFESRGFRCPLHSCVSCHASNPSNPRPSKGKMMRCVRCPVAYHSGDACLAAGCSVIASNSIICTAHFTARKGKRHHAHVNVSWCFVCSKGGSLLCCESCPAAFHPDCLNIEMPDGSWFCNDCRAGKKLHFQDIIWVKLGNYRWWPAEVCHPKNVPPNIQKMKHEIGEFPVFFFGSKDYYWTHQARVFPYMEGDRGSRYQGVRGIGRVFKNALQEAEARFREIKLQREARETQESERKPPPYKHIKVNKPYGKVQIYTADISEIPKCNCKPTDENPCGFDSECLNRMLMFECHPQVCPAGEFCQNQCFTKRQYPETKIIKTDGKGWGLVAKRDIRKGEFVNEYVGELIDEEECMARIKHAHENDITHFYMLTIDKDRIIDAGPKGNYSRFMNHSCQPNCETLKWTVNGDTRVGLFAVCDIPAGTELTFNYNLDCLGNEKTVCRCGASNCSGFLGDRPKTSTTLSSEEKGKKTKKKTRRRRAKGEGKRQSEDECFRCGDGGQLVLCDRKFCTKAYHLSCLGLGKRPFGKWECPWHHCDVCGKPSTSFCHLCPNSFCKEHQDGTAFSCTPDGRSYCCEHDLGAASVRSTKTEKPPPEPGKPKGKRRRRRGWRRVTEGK

[4] = NIH-3T3 fibroblast cytotoxicity, dose response, cytotoxicity control, cell-based, fluorescence, Alamar Blue, secondary assay (AID 2327); assay type: functional;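 note: NIH-3T3 mouse fibroblasts cultured with fluconazole at 8 µg/mL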
Aminopeptidase N = target: T4, Aminopeptidase N (Plasmodium falciparum FcB1/Columbia, UniProt O96935); test: malaria alanyl aminopeptidase activity blockers – biochemical, fluorogenic H-Leu-NHMec substrate, 1536-well (AID 1445); design: species or system Plasmodium falciparum 3D7, 3D7
T4 sequence (O96935 whole entry): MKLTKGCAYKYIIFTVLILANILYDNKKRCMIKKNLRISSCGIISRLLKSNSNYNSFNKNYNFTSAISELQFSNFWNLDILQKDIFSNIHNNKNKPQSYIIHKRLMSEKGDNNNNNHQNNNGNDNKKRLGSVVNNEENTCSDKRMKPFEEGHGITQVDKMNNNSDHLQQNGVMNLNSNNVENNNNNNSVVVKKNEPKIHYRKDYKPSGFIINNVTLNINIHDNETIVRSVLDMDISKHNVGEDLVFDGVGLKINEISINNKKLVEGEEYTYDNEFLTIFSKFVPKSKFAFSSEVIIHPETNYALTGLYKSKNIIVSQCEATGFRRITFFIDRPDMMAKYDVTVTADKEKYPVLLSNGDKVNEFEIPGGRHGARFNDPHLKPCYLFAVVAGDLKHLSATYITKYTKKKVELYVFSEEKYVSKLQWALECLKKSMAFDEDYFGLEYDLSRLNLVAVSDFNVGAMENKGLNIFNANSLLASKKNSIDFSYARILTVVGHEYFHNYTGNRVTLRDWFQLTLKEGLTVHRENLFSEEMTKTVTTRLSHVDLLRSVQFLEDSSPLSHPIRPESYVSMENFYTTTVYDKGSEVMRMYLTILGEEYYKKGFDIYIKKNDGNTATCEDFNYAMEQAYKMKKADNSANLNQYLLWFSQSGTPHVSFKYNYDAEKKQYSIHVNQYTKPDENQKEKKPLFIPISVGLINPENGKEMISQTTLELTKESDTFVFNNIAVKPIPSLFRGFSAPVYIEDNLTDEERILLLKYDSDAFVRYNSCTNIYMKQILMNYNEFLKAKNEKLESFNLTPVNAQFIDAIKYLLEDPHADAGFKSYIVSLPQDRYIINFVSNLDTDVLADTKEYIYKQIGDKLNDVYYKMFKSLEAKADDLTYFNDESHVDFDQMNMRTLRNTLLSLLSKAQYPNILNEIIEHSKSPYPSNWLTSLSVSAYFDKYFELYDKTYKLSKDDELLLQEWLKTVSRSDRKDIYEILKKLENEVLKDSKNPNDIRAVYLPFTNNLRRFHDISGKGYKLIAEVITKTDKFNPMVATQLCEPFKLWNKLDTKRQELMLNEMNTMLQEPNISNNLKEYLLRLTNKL

[5] = fluconazole-exposed Candida albicans growth modulators – fluorescence, retest, confirmation (AID 2467); assay type: functional, cell-based
[6] = target: T5, Replicative DNA helicase DnaB (Mycobacterium tuberculosis, UniProt P9WMR3); test: DnaB intein splicing inhibitors, dose response, biochemical, cell-free fluorescence (AID 449749); assay type: functional
T5 sequence (P9WMR3 whole entry): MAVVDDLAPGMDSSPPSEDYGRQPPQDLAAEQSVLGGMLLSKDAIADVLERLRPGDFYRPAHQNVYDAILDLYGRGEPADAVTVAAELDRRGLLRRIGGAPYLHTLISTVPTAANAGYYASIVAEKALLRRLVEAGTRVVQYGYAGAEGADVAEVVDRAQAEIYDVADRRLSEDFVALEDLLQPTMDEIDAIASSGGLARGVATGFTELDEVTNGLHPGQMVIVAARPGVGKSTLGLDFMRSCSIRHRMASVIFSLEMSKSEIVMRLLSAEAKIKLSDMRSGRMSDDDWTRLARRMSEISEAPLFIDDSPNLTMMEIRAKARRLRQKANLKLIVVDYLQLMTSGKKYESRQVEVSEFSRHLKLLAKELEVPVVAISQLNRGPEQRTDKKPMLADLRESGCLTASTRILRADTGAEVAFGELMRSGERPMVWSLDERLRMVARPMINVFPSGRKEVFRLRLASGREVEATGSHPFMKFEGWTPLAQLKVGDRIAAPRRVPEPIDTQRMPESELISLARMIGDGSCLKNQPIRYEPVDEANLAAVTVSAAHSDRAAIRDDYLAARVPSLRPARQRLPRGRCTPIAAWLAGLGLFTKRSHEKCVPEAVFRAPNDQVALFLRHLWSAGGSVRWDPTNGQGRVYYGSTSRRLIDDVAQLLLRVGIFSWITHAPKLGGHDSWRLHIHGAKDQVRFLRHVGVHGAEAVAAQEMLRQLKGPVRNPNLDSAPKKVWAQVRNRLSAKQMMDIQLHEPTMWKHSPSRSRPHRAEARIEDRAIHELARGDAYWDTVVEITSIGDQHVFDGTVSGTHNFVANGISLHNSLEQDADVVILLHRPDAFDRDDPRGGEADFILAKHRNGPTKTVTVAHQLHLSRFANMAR

Protein RecA = target: T6, Protein RecA (Mycobacterium tuberculosis, UniProt P9WHJ3); test: Fluorescence Cell-Free Homogeneous Dose Retest to Identify Inhibitors of RecA-Intein Splicing Activity. [Related pubchem assays (depositor defined):AID2097, AID2223, AID489010, AID492950]; assay type: functional
T6 sequence (P9WHJ3 whole entry): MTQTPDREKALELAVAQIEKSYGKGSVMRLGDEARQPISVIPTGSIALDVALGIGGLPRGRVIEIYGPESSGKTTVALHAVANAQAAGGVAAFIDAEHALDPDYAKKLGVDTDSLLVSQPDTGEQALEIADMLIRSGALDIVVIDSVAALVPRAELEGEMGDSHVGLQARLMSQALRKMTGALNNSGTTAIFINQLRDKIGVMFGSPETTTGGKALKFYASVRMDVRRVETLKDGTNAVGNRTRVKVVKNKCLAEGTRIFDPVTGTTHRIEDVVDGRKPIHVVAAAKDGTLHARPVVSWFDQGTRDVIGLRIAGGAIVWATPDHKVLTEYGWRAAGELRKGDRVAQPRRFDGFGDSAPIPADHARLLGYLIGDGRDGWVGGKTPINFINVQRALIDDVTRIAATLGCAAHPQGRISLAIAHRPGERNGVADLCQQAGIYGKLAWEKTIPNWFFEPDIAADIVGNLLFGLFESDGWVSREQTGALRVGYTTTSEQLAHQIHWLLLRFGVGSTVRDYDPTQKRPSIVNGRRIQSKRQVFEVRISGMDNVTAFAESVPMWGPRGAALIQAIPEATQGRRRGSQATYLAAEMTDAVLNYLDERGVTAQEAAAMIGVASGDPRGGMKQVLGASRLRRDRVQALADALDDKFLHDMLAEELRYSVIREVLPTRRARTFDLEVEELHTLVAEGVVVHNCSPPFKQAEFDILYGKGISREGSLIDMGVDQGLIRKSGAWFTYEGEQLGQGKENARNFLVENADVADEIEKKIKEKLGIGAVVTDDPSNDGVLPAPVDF

[7] = target: E3 ubiquitin-protein ligase Mdm2 (Homo sapiens, UniProt Q00987); test: MDM2-luc reporter signal enhancers, multi-concentration potency testing, MDM2 ubiquitin-protein ligase inhibitor program, whole-cell format, luminescence detection, 384-well microplate (AID 1394); assay type: functional;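 note: MDM2 E3 inhibitors raise luminescence so EC50 is for signal enhancement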
E3 ubiquitin-protein ligase Mdm2, sequence (Q00987 whole entry): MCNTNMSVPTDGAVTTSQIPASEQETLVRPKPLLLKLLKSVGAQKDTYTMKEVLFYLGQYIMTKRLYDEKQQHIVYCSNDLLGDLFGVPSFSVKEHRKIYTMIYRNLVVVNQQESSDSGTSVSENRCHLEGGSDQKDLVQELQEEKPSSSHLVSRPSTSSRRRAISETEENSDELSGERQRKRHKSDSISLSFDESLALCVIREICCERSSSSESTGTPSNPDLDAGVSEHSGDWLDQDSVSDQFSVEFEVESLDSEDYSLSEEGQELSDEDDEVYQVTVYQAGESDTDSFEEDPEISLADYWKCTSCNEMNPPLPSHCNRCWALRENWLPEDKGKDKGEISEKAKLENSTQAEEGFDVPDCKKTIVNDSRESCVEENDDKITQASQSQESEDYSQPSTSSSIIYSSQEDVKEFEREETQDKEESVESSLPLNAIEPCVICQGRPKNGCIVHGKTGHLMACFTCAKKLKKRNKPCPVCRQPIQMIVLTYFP

[8] = viability loss in THP-1 monocytes – THP-1 cells, cytotoxicity control for Vif-APOBEC3G degradation inhibitor project, dose response (AID 1117359); assay type: functional; conditions: THP-1
[9] = growth inhibition of yeast DHODH-expressing 3D7 parasites – SYBR Green, dry powder samples, dose response (AID 1159570); assay type: functional, cell-based;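 note: parasite growth measured after 72 hours of compound exposure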
[10] = toxicity to human HepG2 hepatoma cells – cell-based, plate reader, dry powder samples, cytotoxicity control, dose response (AID 1159569); assay type: functional;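 note: inhibitor potency with signal falling toward the positive control level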
[11] = Dd2 malaria parasite growth inhibition potency – SYBR Green, dry powder samples, dose response (AID 1159566); assay type: functional, cell-based;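 note: potency for growth inhibition with lower SYBR green DNA signal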
[12] = growth inhibition of PfATP4-mutant resistant parasites – NITD609-resistant line, SYBR Green, dry powder, dose response (AID 1159571); assay type: functional, cell-based;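 note: parasites synchronized at ring stage by sorbitol before testing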
[13] = P. falciparum Dd2 growth inhibitors, dose response, SYBR Green, cherry-picked samples (AID 1159567); assay type: functional, cell-based

FAD-linked sulfhydryl oxidase ALR, sequence (P55789 whole entry, the tested form may be a part): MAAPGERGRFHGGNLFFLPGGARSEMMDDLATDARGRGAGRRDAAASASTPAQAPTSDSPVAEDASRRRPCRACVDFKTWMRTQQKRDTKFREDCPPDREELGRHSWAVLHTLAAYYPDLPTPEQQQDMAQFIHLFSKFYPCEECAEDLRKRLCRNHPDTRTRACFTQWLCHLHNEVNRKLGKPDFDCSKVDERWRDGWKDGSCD

C=CCc1cc(/C=C/c2nc(O)c([N+](=O)[O-])c(O)n2)cc(OC)c1O
AC50 [1]: 0.469 µM (active) | IC50 [2]: 19.3 µM (active) | AC50 (Caspase-6): 9.31 µM (active) | AC50 [3]: > 20 µM (inactive)

Cc1ccc(C(=O)c2coc3cc([N+](=O)[O-])c(O)c([N+](=O)[O-])c23)cc1
EC50 [4]: > 160 µM (inactive) | IC50 (Aminopeptidase N): 32.1 µM (active) | EC50 [5]: > 38 µM (not active) | AC50 [6]: 24.4 µM (active) | EC50 (Protein RecA): 9.46 µM (active) | AC50 (Caspase-6): 28.8 µM (active)

COc1ccc(C)cc1C1=Nc2ccccc2C1(C)C
EC50 [7]: 15.4 µM (not active)

Cc1ccc(NC(=O)C(=O)c2c(-c3ccccc3)cc3ccccn23)cc1S(=O)(=O)N1CCOCC1
CC50 [8]: > 40 µM (active)

C[C@H]1CN([C@@H](C)CO)S(=O)(=O)c2ccc(C#Cc3ccncc3)cc2O[C@@H]1CN(C)S(=O)(=O)c1ccccc1
AC50 [9]: 3 µM (active) | AC50 [10]: > 100 µM (inactive) | AC50 [11]: 4.05 µM (active) | AC50 [12]: 3.53 µM (active)

O=C(N/N=C\c1ccc(Cl)s1)c1cccs1
EC50 [7]: 6.96 µM (not active)

COc1ccc2c3c(n(C)c2c1)[C@H](CO)N(C(=O)Nc1ccc(F)cc1)CC31CCN(S(=O)(=O)c2cccc(F)c2)CC1
AC50 [9]: 1.63 µM (active) | AC50 [10]: > 100 µM (inactive) | AC50 [13]: 1.19 µM (active) | AC50 [11]: 0.951 µM (active) | AC50 [12]: 1.56 µM (active)
